These are literature values, as cited in patent publication US9682924B2, “Crystalline form of VSN16” (CANBEX THERAPEUTICS LIMITED, priority 2013, dated 2017).

For one data set, the system named is mesenteric arteries. The settings on record: for antagonism of VSN16 vasorelaxation: antagonist against VSN16-induced vasorelaxation, rimonabant and AM 251 at high concentrations.
In a further data set the target is T1, CB1 receptors (Rattus norvegicus, UniProt P20272).
T1 construct: from tissue; host or cells: rat cerebellum
The settings on record: rat cerebellum.

For a further data set, the system named is spasticity in CREAE mice. As to conditions: without producing significant adverse CNS effects.

T1 sequence (P20272 whole entry): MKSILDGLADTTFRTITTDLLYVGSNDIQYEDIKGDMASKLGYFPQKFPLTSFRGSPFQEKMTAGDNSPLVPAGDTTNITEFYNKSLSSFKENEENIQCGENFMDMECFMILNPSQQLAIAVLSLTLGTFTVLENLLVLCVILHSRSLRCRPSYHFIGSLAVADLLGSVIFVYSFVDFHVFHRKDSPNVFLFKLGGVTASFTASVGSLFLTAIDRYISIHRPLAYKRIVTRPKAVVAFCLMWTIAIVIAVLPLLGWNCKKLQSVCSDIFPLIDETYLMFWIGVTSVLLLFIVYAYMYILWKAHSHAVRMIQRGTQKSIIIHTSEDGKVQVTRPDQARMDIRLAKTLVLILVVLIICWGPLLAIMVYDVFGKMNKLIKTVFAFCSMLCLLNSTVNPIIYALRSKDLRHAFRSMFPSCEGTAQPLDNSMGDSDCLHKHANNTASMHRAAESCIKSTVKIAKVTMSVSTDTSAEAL

Regarding `Cc1c(C(=O)NN2CCCCC2)nn(-c2ccc(Cl)cc2Cl)c1-c1ccc(I)cc1` [AM 251], the “antagonism of VSN16 vasorelaxation” value in the data set with mesenteric arteries is listed as “antagonized”.

With `C=C(C)[C@@H]1CCC(C)=C[C@H]1c1c(OC)cc(C)cc1OC` [O-1918], the “antagonism of VSN16 vasorelaxation” value in the data set on mesenteric arteries is reported as “antagonized”.

Regarding `CC(CO)NC(=O)c1cccc(/C=C\CCCC(=O)N(C)C)c1` (centres unmarked) [VSN16], the “relaxation of mesenteric arteries” value in the data set with mesenteric arteries (endothelium-dependent) was “relaxes mesenteric arteries in an endothelium-dependent manner”. In the data set on conscious rats, the blood pressure result was “transiently increases blood pressure” and the mesenteric vascular conductance entry is “longer-lasting increase in mesenteric vascular conductance”. In addition, the “effect on [3H]CP55,940 binding to CB1 receptors” value at CB1 receptors is recorded as “does not affect”. In the data set with spasticity in CREAE mice, the effect on spasticity result is listed as “marked effect on spasticity”.

With `Cc1c(C(=O)NN2CCCCC2)nn(-c2ccc(Cl)cc2Cl)c1-c1ccc(Cl)cc1` [rimonabant], the “antagonism of VSN16 vasorelaxation” value with mesenteric arteries is given as “antagonized”.
